Values of other authors, collected in patent US8389009B2, “Spatial control of signal transduction” (Wisconsin Alumni Research Foundation, priority 2005, dated 2013).
Read-outs that look alike come from different tables or passages of the source.

T1: VEGF (Homo sapiens, UniProt P15692)
T1 sequence (P15692 27-191 isoform P15692-4): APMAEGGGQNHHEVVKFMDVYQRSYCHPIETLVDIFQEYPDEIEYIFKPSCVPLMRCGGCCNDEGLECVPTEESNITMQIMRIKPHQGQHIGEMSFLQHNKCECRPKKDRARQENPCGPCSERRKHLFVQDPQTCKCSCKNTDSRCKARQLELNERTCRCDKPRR


Key:
VEGF [1] = target: T1, VEGF; details: handle for VEGF; literature value; read-out: Affinity (KD)
IGF-1 [2] = target: T2, IGF-1 (Homo sapiens, UniProt P05019); details: handle for IGF-1; literature value; read-out: Affinity (KD)
T2 sequence (P05019 49-118 limits assumed): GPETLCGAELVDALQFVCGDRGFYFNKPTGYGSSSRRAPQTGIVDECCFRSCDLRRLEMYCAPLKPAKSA

IGF-1 [3] = target: T2, IGF-1; details: natural receptor binding IGF-1, according to previous studies; read-out: affinity (dissociation constant KD)
VEGF [4] = target: T1, VEGF; details: natural receptor binding VEGF, according to previous studies; read-out: affinity (dissociation constant KD)

Molecule	Kd (VEGF [1])	other results
GGAAGAAUUGGUCAUCGUCGUCUCCGCCUCCC (chemistry not given here) [SEQ ID NO: 4]	100 nM	
HDCFASVEALRRCMY [SEQ ID NO: 9]		Kd (IGF-1 [2]): 500 nM
RNCFESVAALRRCMY [SEQ ID NO: 8]		Kd (IGF-1 [2]): 100 nM
AAGAAACGGAAGAAUUGGAGACACGCUCGU (chemistry not given here) [SEQ ID NO: 2]	1 nM	
AGUUUUGGAAGAAUUGGAUGUUCCGAUCGU (chemistry not given here) [SEQ ID NO: 3]	10 nM	
AUGCAGUUUGAGAAGUCGCGGAU [SEQ ID NO: 1]	0.01 nM	
EELWCFDGPRAWVCGYVK [SEQ ID NO: 7]	10000 nM	
VEPNCDIHVMWEWECFERL [SEQ ID NO: 5]	200 nM	
natural IGF-1 receptor: natural cell surface receptor that binds IGF-1		Kd (IGF-1 [3]): ~0.16 nM
VTCAADALGFLYCWE [SEQ ID NO: 10]		Kd (IGF-1 [2]): 2000 nM
natural VEGF receptor 1: natural cell surface receptor that binds VEGF (protein, UniProt P17948 27-1338, looked up) Vascular endothelial growth …: SKLKDPELSLKGTQHIMQAGQTLHLQCRGEAAHKWSLPEMVSKESERLSITKSACGRNGKQFCSTLTLNTAQANHTGFYSCKYLAVPTSKKKETESAIYIFISDTGRPFVEMYSEIPEIIHMTEGRELVIPCRVTSPNITVTLKKFPLDTLIPDGKRIIWDSRKGFIISNATYKEIGLLTCEATVNGHLYKTNYLTHRQTNTIIDVQISTPRPVKLLRGHTLVLNCTATTPLNTRVQMTWSYPDEKNKRASVRRRIDQSNSHANIFYSVLTIDKMQNKDKGLYTCRVRSGPSFKSVNTSVHIYDKAFITVKHRKQQVLETVAGKRSYRLSMKVKAFPSPEVVWLKDGLPATEKSARYLTRGYSLIIKDVTEEDAGNYTILLSIKQSNVFKNLTATLIVNVKPQIYEKAVSSFPDPALYPLGSRQILTCTAYGIPQPTIKWFWHPCNHNHSEARCDFCSNNEESFILDADSNMGNRIESITQRMAIIEGKNKMASTLVVADSRISGIYICIASNKVGTVGRNISFYITDVPNGFHVNLEKMPTEGEDLKLSCTVNKFLYRDVTWILLRTVNNRTMHYSISKQKMAITKEHSITLNLTIMNVSLQDSGTYACRARNVYTGEEILQKKEITIRDQEAPYLLRNLSDHTVAISSSTTLDCHANGVPEPQITWFKNNHKIQQEPGIILGPGSSTLFIERVTEEDEGVYHCKATNQKGSVESSAYLTVQGTSDKSNLELITLTCTCVAATLFWLLLTLFIRKMKRSSSEIKTDYLSIIMDPDEVPLDEQCERLPYDASKWEFARERLKLGKSLGRGAFGKVVQASAFGIKKSPTCRTVAVKMLKEGATASEYKALMTELKILTHIGHHLNVVNLLGACTKQGGPLMVIVEYCKYGNLSNYLKSKRDLFFLNKDAALHMEPKKEKMEPGLEQGKKPRLDSVTSSESFASSGFQEDKSLSDVEEEEDSDGFYKEPITMEDLISYSFQVARGMEFLSSRKCIHRDLAARNILLSENNVVKICDFGLARDIYKNPDYVRKGDTRLPLKWMAPESIFDKIYSTKSDVWSYGVLLWEIFSLGGSPYPGVQMDEDFCSRLREGMRMRAPEYSTPEIYQIMLDCWHRDPKERPRFAELVEKLGDLLQANVQQDGKDYIPINAILTGNSGFTYSTPAFSEDFFKESISAPKFNSGSSDDVRYVNAFKFMSLERIKTFEELLPNATSMFDDYQGDSSTLLASPMLKRFTWTDSKPKASLKIDLRVTSKSKESGLSDVSRPSFCHSSCGHVSEGKRRFTYDHAELERKIACCSPPPDYNSVVLYSTPPI		Kd (VEGF [4]): ~0.0075 nM
